# Assay results published in US20240041842A1, “PHARMACEUTICAL COMPOSITION FOR INHIBITING CANCER METASTASIS” (INDUSTRY-ACADEMIC COOPERATION FOUNDATION, YONSEI UNIVERSITY, priority 2021, published 2024).
# How the values were obtained:
# Type in all cases: cell-based, human
# KL cell lines = assay: Matrigel invasion assay, KL cell lines; conditions: in two of the three KL cell lines; AMG-510 1 uM
# Experimental: (§1) For the 2D invasion assay, the inserts were pre-coated with 300 μg/ml Matrigel (Coming, 354234). After staining with […] dye (Bio-Rad, 1450013), 1×10^5 live cells per 8-um-pore cell-culture insert (Costar. 3422) were seeded in 0.5% ACL medium. 10% ACL medium was added to the outside of the insert. In the case of lung cancer and pancreatic cancer cell lines, after inoculation in 1% RPMI medium, 20% RPMI medium was added to the outside of the insert. Plates were incubated for 24 hours at 37° C. After incubation, the insert was fixed with 3.7% PFA, washed, stained with 0.4% crystal violet, and the upper membrane was washed and dried.
# Snail [1] = assay: Western blot of Snail protein
# Experimental: (§2) Cells were harvested, washed with PBS, and lysed on ice with RIPA buffer containing protease and phophatase inhibitor cocktail (GenDEPOT). After 15 minutes of incubation, the cell lysates were centrifuged at 15,000 rpm at 4° C. for 10 minutes. Protein concentration was measured by Bradford assay (Bio-rad, 500-0006). Equal amounts of total protein were placed on an SDS gel electrophoresis and transferred to a PVDF membrane (Bio-rad). The membrane was blocked with 5% skim milk for 1 hour at room temperature and incubated overnight at 4° C. with primary antibody in a buffer containing 0.1% Tween-20. Subsequently, the membrane was washed three times with Tween-PBS buffer and incubated for 1 hour at room temperature using a secondary antibody diluted in blocking buffer containing 0.1% Tween-20. Subsequently, the membrane was washed three times for 10 minutes each using Tween-TBS. Densitometry of Western blots was measured using ImageJ software.
# […] For autophagy activation, cells were'treated with 2 μM rapamycin (Selleckchem, S1039) for 5 hours. Modulation of intracellular ROS was performed with N-acetyl-cysteine (10 mM) (Sigma, A7250), hydrogen peroxide solution (100 μM to 200 μM) (Sigma, 216763), or CDDO-ME NRF2 activator (50 nM, 100 nM) (Sellckchem, S8078) for 4 to 24 hours. Intercellular calcium signal control was performed for 1 hour using BAPTA-AM (20 μM) (Sigma, A1076) or Calmidazolium Chloride (2.5 μM) (Sigma, C3930). […] For TFEB protein phosphorylation, tacrolimus (1 μM) (Selleckchem, S5003) was treated for 1 hour. […] During siRNA treatment, each siRNA was treated to a concentration of 40 to 50 nM and treated together with Lipofectamine RNAiMax (Thermo Fisher Scientific, 13778150) for transformation, and were used for experiments 48 to 72 hours later. For cDNA treatment, each cDNA was treated to a concentration of 1 to 2 μg in a 6-well plate and treated with Lipofectamine 2000 (Thermo Fisher Scientific, 11668019) for transformation, and were used for experiments 24 hours later.
# Snail [2] = assay: Western blot of Snail protein; conditions: HBEC-KL
# β-catenin = assay: Western blot of β-catenin; conditions: HBEC-KL; CHIR99021 3 uM, 5 hours, in the presence of 50 uM CQ
# Experimental: as §2, with “FIG. 5K illustrates the expression level of Snail protein after treatment with the GSK3β inhibitor CHIR99021 (3 uM, treatment for 5 hours) in the presence of 50 uM chloroquine (CQ) in the HBEC-KL cell line. Cells” for “Cells”
# LC3 = assay: Autophagic flux (LC3 Western blot, mRFP-GFP-LC3 lysosomal delivery assay); conditions: HBEC-KL; 10 mM acetate 24 hours or 3 uM SAHA
# Experimental: as §2, with “Representative GFP-LC3, RFP-LC3 and overlapping images are shown. In addition, red puncta (mRFP+/GFP−) and yellow puncta (mRFP+/GFP+) per cell were quantified and graphed (n=15 cells/treatment). Cells” for “Cells”
# phospho-RPS6 (p-S6) = assay: Western blot of phospho-RPS6 (p-S6); conditions: HBEC-KL; acetate or SAHA treatment
# Experimental: as §2
# TFEB [3] = assay: Western blot / immunoprecipitation-immunoblot of TFEB (acetylated, phosphorylated, total); conditions: HBEC-KL; for reduced TFEB protein level in the chloroquine (CQ) treatment condition: 50 uM CQ 24 hours with 10 mM acetate 24 hours or 3 uM SAHA 15 hours; for acetylated TFEB level / phosphorylated TFEB level / total TFEB protein level: 10 mM acetate 24 hours or 3 μM SAHA
# Experimental: FIG. 11J illustrates a diagram of immunoblot results of the […] a control (left), and the immunoprecipitation-immunoblot result of TFEB acetylated HBEC-KL cells under the same conditions (right) is also shown,
# as §2
# (§3) For immunoprecipitation, equal amounts of lysate and Co-IP buffer (40 mM HEPES, pH 7.4, 120 mM NaCl, 2 mM EDTA, 0.3% CHAPS (Sigma, 10810118001), 10 mM pyrophosphate (Sigma, 221368), 10 mM glycerophosphate (Sigma, G9422), 50 mM NaF, phosphatase and protease inhibitor mixture) were mixed. Cell lysates (1 μg protein) were incubated overnight at 4° C. on anti-FLAG® M2 Affinity Gel (Sigma, A2220) or anti-acetyl-lysine antibody coated agarose (ImmuneChem Pharmaceuticals, ICP0388). The immunoprecipitate was then washed three times in IP buffer, and the immunoprecipitated complex was dissolved and separated by boiling in IP buffer for 5 minutes.
# TFEB (CLEAR network) = assay: CLEAR motif-driven luciferase reporter assay; conditions: HBEC-KL
# Experimental: To compare the TFEB reporter activity with other cell lines (HBEC30KT, HBEC-K, and HBEC-KL), the pGL4.70 5× CLEAR Rluc and pSt4.14 Fluc vectors were transiently co-transfected and normalized luciferase activity was measured in Dual-Measured by Luciferase® Reporter Assay System (Promega, E1910),
# Snail [4] = assay: Immunoprecipitation-immunoblot of phosphorylated/acetylated or K48 polyubiquitinated Snail in A549 cells; conditions: 25 uM C646 or 3 uM SAHA
# Experimental: FIG. 9K illustrates the immunoprecipitation-immunoblot result of phosphorylated/acetylated or K48 polyubiquitinated Snail assay after transfection of wild-type Snail (pFLAG-Snail WT) or acetylation-defective Snail mutant (pFLAG-SnailK146R) into A549 cells and/or treatment with 25 uM C646.
# FIG. 9L illustrates the immunoprecipitation-immunoblot results of the polyubiquitinated Snail assay after transfection of HA-ubiquitin and wild-type Snail (pFLAG-Snail WT) or acetylation-defective Snail mutant (pFLAG-SnailK146R) into A549 cells and/or treatment with 25 uM C646 for 2 hours (left) and/or treatment of 3 uM SAHA for 5 hours (right).
# as §3
# HBEC-KL cell line = assay: Matrigel invasion assay, HBEC-KL cell line
# Experimental: as §1
# TFEB [5] = assay: Immunofluorescence of TFEB localization; conditions: HBEC-KL; 10 mM acetate 24 hours or 3 uM SAHA 5 hours
# Experimental: Cells were seeded onto coated glass coverslips and maintained in ACL medium for 48 hours. After washing the cells three times with PBS. they were incubated in 3.7% paraformaldehyde for 10 minutes and fixed. Thereafter, the cells were washed three times with PBS and subjected to cell permeabilizaton in PBS containing 0.1% Triton X-100 for 10 minutes. After washing with PBS three times, the sample was blocked for 30 minutes at room temperature with PBS containing 0.1% Triton X-100 and 5% goat serum. Samples were incubated with primary antibody (1:150). followed by incubation with anti-rabbit/mouse Alexa Fluor 488/568 secondary antibody (Thermo Fisher Scientific, A-11001, 11004, 11008. 11011) and ProLong Gold Antifade Mountant with DAPI (Thermo Fisher Scientific, P36931), Images were taken with an Axio imager M2 microscope (Carl Zeiss, […]) equipped with a 63× oil objective and analyzed with ZEN version 3.0 software.
# acetylated Snail = assay: Immunoprecipitation-immunoblot of acetylated Snail; conditions: HBEC-KL
# Experimental: Cell lysates (1 μg protein) were incubated overnight at 4° C. on anti-FLAG® M2 Affinity Gel (Sigma, A2220) or anti-acetyl-lysine antibody coated agarose (ImmuneChem Pharmaceuticals, ICP0388). The immunoprecipitate was then washed three times in IP buffer, and the immunoprecipitated complex was dissolved and separated by boiling in IP buffer for 5 minutes.
# For SDS-PAGE electrophoresis, the immunoprecipitated complex was transferred to a nitrocellulose membrane and the membrane was blocked and then incubated for 1 hour at room temperature with Primary antibody and secondary antibody (VeriBlot for IP Detection Reagent (HRP) (Abcam, #ab131366), and anti-mouse IgG tor IP (HRP) (Abeam, #ab131368)).
# After washing 3 times, the membrane was incubated with the secondary antibody.
# TFEB gene = assay: Real-time PCR of TFEB gene; conditions: HBEC-KL; 10 mM acetate 24 hours or 3 uM SAHA 15 hours
# Experimental: At 72 hours after siRNA transfection (post-transfection) and 12 to 24 hours after chemical treatment, total RNA was isolated with the RNeasy miniprep kit (QIAGEN, 74134). After synthesizing complementary DNA (cDNA) using the TOPscript·8 cDNA synthesis kit (Enzynomics, EZ0054), gRT-PCR was performed with TCPreal™ gRCR 2× PreMIX (SYBR Green with low ROX) (Enzynomics, RT501M). GAPDH and beta-actin were used for RNA normalization. qRT-PCR was performed with a StepOne Plus (Applied Biosystems) instrument.
# SNAI1 gene = assay: Real-time PCR of SNAI1 gene; conditions: HBEC-KL; 10 mM acetate, 24 hours
# Experimental: After synthesizing complementary DNA (cDNA) using the TOPscript·8 cDNA synthesis kit (Enzynomics, EZ0054), gRT-PCR was performed with TCPreal™ gRCR 2× PreMIX (SYBR Green with low ROX) (Enzynomics, RT501M). GAPDH and beta-actin were used for RNA normalization. qRT-PCR was performed with a StepOne Plus (Applied Biosystems) instrument.
SMILES,autophagy flux (LC3),level of phospho-RPS6 (p-S6) (phospho-RPS6 (p-S6)),reduced TFEB protein level in the chloroquine (CQ) treatment condition (TFEB [3]),acetylated TFEB level (TFEB [3]),phosphorylated TFEB level (TFEB [3]),total TFEB protein level (TFEB [3]),level of nuclear-localized TFEB (TFEB [5]),TFEB mRNA level (TFEB gene),other results
C=CC(=O)N1CCN(c2nc(=O)n(-c3c(C)ccnc3C(C)C)c3nc(-c4c(O)cccc4F)c(F)cc23)[C@@H](C)C1 [AMG-510],–,–,–,–,–,–,–,–,"cell invasiveness (KL cell lines): increased; Snail expression level (Snail [1]; in two of the three KL cell lines, AMG-510 1 uM, 48 hours): increased"
Cc1c[nH]c(-c2cnc(NCCNc3ccc(C#N)cn3)nc2-c2ccc(Cl)cc2Cl)n1 [CHIR99021],–,–,–,–,–,–,–,–,"levels of Snail protein under autophagy inhibition (Snail [2]; CHIR99021 3 uM, 5 hours, in the presence of 50 uM CQ): did not restore; expression levels of β-catenin under autophagy inhibition (β-catenin): restored"
"O=C(CCCCCCC(=O)Nc1ccccc1)NO [SAHA, vorinostat]",increased,kept constant,partially restored,increased,increased,increased,increased,no significant change,"Snail reduction by chloroquine (CQ), upon SAHA treatment (Snail [2]; 3 uM SAHA and 50 uM CQ, 24 hours): restored; CLEAR activity under FK506 treatment (TFEB (CLEAR network); 1 uM FK506 with 10 mM acetate 24 hours or 3 uM SAHA 15 hours): increased; CLEAR activity (TFEB (CLEAR network); 10 mM acetate 24 hours or 3 uM SAHA 5 hours): increased; K48 polyubiquitination of wild-type Snail (Snail [4]; pFLAG-Snail WT): reduced; phosphorylation of wild-type Snail (Snail [4]; pFLAG-Snail WT): reduce; phosphorylation and acetylation of K146R Snail (Snail [4]; pFLAG-SnailK146R): did not affect; degree of matrigel-infiltration (HBEC-KL cell line; HBEC-KL, SAHA): increased; level of acetylated Snail (acetylated Snail; 3 uM SAHA, 15 hours): increased"
"CC(=O)[O-].[Na+] [acetate, sodium acetate]",increased,kept constant,partially restored,increased,increased,increased,increased,no significant change,"invasiveness (HBEC-KL cell line; KL cells (HBEC-KL), 10 mM acetate, 24 hours): increased; Snail mRNA expression levels (SNAI1 gene): no effect; Snail protein expression levels (Snail [1]; HBEC-KL, acetate, 24 hours): increased; level of acetylated Snail (acetylated Snail; 10 mM acetate, 24 hours): increased"
